Data as given in patent US20260265235A1, “BICYCLOAMINE CARBOXAMIDE DERIVATIVE” (Sumitomo Pharma Co., Ltd., priority 2022, published 2026).

Molecular target: T1, Human orexin receptor type 2 (Homo sapiens, UniProt O43614)
T1 construct: expressed in transfected cells; host or cells: CHO cells (transient expression, with apoaequorin)
T1 sequence (O43614 1-444): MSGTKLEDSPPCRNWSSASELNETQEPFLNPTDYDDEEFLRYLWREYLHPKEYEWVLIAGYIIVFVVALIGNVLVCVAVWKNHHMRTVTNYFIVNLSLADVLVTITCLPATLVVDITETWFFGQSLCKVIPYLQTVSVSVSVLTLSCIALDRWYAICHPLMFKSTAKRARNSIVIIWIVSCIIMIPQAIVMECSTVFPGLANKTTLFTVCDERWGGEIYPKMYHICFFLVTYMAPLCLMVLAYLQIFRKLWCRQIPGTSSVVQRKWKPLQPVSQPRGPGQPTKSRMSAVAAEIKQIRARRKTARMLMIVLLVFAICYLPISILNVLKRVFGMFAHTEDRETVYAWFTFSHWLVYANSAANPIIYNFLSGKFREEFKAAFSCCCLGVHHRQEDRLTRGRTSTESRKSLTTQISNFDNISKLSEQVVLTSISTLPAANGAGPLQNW
Assay: Test Example 2: agonist activity for orexin receptor type 2 (aequorin luminescence, intracellular calcium mobilization in CHO cells)
Format: cell-based
Details: compound 10 μM; relative percentage of luminescence for the luminescence (100%) of Orexin A (100 μM); CHO cells transiently expressing human orexin receptor type 2 and apoaequorin
Protocol: Test Example 2: Measurement of Agonist Activity for Orexin Receptor Type 2
Human orexin receptor type 2 and apoaequorin were transiently expressed in CHO cells, and the agonist activity was evaluated based on intracellular calcium mobilization with ligand stimulation. The CHO cells transiently-expressed human orexin receptor type 2 and apoaequorin were seeded on a 384-well plate by 2,000 cells/well, and then incubated for 16-22 hours. After the plate was returned to room temperature, Coelenterazine hcp (final concentration: 1 μM) was added to the plate, and the plate was allowed to stand at room temperature for 2 hours. And then, Orexin A (PEPTIDE INSTITUTE, INC., Lot. 711101) or each test compound was added to the plate, and the luminescence of the cells was measured with FDSS7000 (Hamamatsu Photonics K.K.), wherein Orexin A and each test compound were dissolved in DMSO (final concentration: 0.1%), and diluted with a buffer (Hanks, 20 mM HEPES, 0.1% BSA). The agonist activity of each test compound for orexin receptor type 2 was calculated as relative percentage of luminescence for the luminescence (100%) of Orexin A (100 μM).
Each agonist activity of the compounds obtained in Examples (10 μM) for orexin receptor type 2 is shown in the table below as relative percentage of luminescence for the luminescence (100%) of Orexin A (100 μM).

| Structure (SMILES) | Agonist Activity (%) |
| --- | --- |
| CC(C)N1CCN([C@H]2CCCC(F)(F)[C@@H]2NC(=O)N2C[C@@H]3CN(c4ccccc4F)C[C@@H]3C2)CC1 [Example 19, (3aR,6aS)—N-{(1R,6S)-2,2-difluoro-6-[4-(propan-2-yl)piperazin-1-yl]cyclohexyl}-5-(2-fluorophenyl)hexahydropyrrolo[3,4-c]pyrrole-2(1H)-carboxamide] | 390% |
| CC(C)N1CCN([C@H]2CCCC(F)(F)[C@@H]2NC(=O)N2C[C@@H]3CN(c4ccccn4)C[C@@H]3C2)CC1 [Example 20, (3aR,6aS)—N-{(1R,6S)-2,2-difluoro-6-[4-(propan-2-yl)piperazin-1-yl]cyclohexyl}-5-(pyridin-2-yl)hexahydropyrrolo[3,4-c]pyrrole-2(1H)-carboxamide] | 345% |
| Cc1nc(C2C[C@H]3CC(C(=O)N[C@@H]4[C@@H](O[C@H]5CCN(C(C)C)C5)CCCC4(F)F)C[C@H]3C2)no1 (stereo partly drawn) [Example 32, (3aR,5R,6aS)—N-[(1R,6S)-2,2-difluoro-6-{[(3S)-1-(propan-2-yl)pyrrolidin-3-yl]oxy}cyclohexyl]-5-(5-methyl-1,2,4-oxadiazol-3-yl)hexahydropenta[c]pyrrole-2(1H)-carboxamide] | 345% |
| CC(C)N1CCN([C@H]2CCCC(F)(F)[C@@H]2NC(=O)N2C[C@H]3C[C@@H](c4ccccn4)C[C@H]3C2)CC1 [Example 25, (3aR,5R,6aS)—N-{(1R,6S)-2,2-difluoro-6-[4-(propan-2-yl)piperazin-1-yl]cyclohexyl}-5-(pyridin-2-yl)hexahydropenta[c]pyrrole-2(1H)-carboxamide] | 396% |
| CC(C)N1CC[C@H](N(C)[C@H]2CCCC(F)(F)[C@@H]2NC(=O)N2C[C@H]3CC(c4ccccc4)C[C@H]3C2)C1 (stereo partly drawn) [Example 33, (3aR,5R,6aS)—N-[(1R,6S)-2,2-difluoro-6-{methyl[(3S)-1-(propan-2-yl)pyrrolidin-3-yl]amino}cyclohexyl]-5-phenylhexahydropenta[c]pyrrole-2(1H)-carboxamide] | 343% |
| CC(C)N1CC[C@H](O[C@H]2CCCC(F)(F)[C@@H]2NC(=O)N2C[C@@H]3CN(c4ccccc4)C[C@@H]3C2)C1 [Example 29, (3aR,6aS)—N-[(1R,6S)-2,2-difluoro-6-{[(3S)-1-(propan-2-yl)pyrrolidin-3-yl]oxy}cyclohexyl]-5-phenylhexahydropyrrolo[3,4-c]pyrrole-2(1H)-carboxamide] | 393% |
| CC(C)N1CC[C@H](O[C@H]2CCCC(F)(F)[C@@H]2NC(=O)N2C[C@H]3CC(c4ccccc4)C[C@H]3C2)C1 (stereo partly drawn) [Example 28, (3aR,5R,6aS)—N-[(1R,6S)-2,2-difluoro-6-{[(3S)-1-(propan-2-yl)pyrrolidin-3-yl]oxy}cyclohexyl]-5-phenylhexahydropenta[c]pyrrole-2(1H)-carboxamide] | 400% |
| Cc1nc([C@@H]2C[C@@H]3CN(C(=O)N[C@@H]4[C@@H](N5CCN(C(C)C)CC5)CCCC4(F)F)C[C@@H]3C2)no1 [Example 30, (3aR,5R,6aS)—N-{(1R,6S)-2,2-difluoro-6-[4-(propan-2-yl)piperazin-1-yl]cyclohexyl}-5-(5-methyl-1,2,4-oxadiazol-3-yl)hexahydropenta[c]pyrrole-2(1H)-carboxamide] | 374% |
| Cc1cccc([C@@H]2C[C@@H]3CN(C(=O)N[C@@H]4[C@@H](N5CCN(C(C)C)CC5)CCCC4(F)F)C[C@@H]3C2)c1 [Example 24, (3aR,5R,6aS)—N-{(1R,6S)-2,2-difluoro-6-[4-(propan-2-yl)piperazin-1-yl]cyclohexyl}-5-(3-methylphenyl)hexahydropenta[c]pyrrole-2(1H)-carboxamide] | 414% |
| Cc1ccc(N2C[C@H]3CN(C(=O)N[C@@H]4[C@@H](N5CCN(C(C)C)CC5)CCCC4(F)F)C[C@H]3C2)cc1 [Example 23, (3aR,6aS)—N-{(1R,6S)-2,2-difluoro-6-[4-(propan-2-yl)piperazin-1-yl]cyclohexyl}-5-(4-methylphenyl)hexahydropyrrolo[3,4-c]pyrrole-2(1H)-carboxamide] | 404% |
